Assay [1] can be described thus: Inhibition of human voltage-dependent L-type calcium channel subunit alpha1C/alpha2delta/beta2a expressed in C1-6-37-3 cells assessed as inhibition of K+-induced calcium influx incubated for 30 mins prior to K+-induction by Fluo-4-AM based FLIPR assay. In kind it is cell-based.
Assay [2] is described as follows: Cytotoxicity against human Fa2N-4 cells after 24 hrs by MTT assay. Type of assay: cell-based. The note with it: Fa2N-4, 24 h.

Each structure is given as a SMILES string. Where a SMILES comes first, the peptide text is derived from it. [ ]: non-standard residue; d: D form. NMeF = CN[C@@H](Cc1ccccc1)C(=O)O A value given as a limit tells only on which side of the number the result lay.

What is called IC50 is the concentration that gives 50% inhibition. On to `COc1ccc(CCN(C)CCCC(C#N)(c2ccc(OC)c(OC)c2)C(C)C)cc1OC` (centres undefined), for which, in assay [1], the IC50 turned out to be 0.9 µM.

As for `CC[C@H](C)[C@@H]1NC(=O)[C@H](Cc2ccccc2)N(C)C(=O)[C@H]([C@@H](C)CC)NC(=O)[C@H](Cc2ccccc2)N(C)C1=O` (cyclo(I[NMeF]I[NMeF])), the values for the IC50 in assay [1] and in assay [2] were 5 µM and more than 20 µM, respectively.

Take `CC[C@H](C)[C@@H]1NC(=O)[C@H](Cc2ccccc2)N(C)C(=O)[C@H](C(C)C)NC(=O)[C@H](Cc2ccccc2)N(C)C1=O` (cyclo(I[NMeF]V[NMeF])): the IC50 was 7.1 µM in assay [1] and more than 20 µM in assay [2].

`CC(C)[C@@H]1NC(=O)[C@H](Cc2ccccc2)N(C)C(=O)[C@H](C(C)C)NC(=O)[C@H](Cc2ccccc2)N(C)C1=O` (cyclo([NMeF]V[NMeF]V)): the concentration for half-maximal inhibition (IC50) in assay [1] was 6.2 µM; in assay [2] it was more than 20 µM.

On to `COc1ccc([C@@H]2Sc3ccccc3N(CCN(C)C)C(=O)[C@@H]2OC(C)=O)cc1` [DILTIAZEM], for which the IC50 in assay [1] was 2.2 µM.

For `CCOC(=O)C1=C(C)NC(C)=C(C(=O)OC)C1c1cccc([N+](=O)[O-])c1` (centres undefined) [NITRENDIPINE], the IC50 in assay [1] amounted to 0.003 µM.

For the origin of these results see ChEMBL document CHEMBL2062434, “Isolation and structural elucidation of cyclic tetrapeptides from Onychocola sclerotica” (J Nat Prod, 2012).
